Data on seven compounds can be found in the supplement of paper PMC11061612.

What all share (test): combination Emax (second highest fraction inhibited in the dose matrix, 72 h); higher = more inhibition; extreme values may be limits of the assay
The test system of experiment [1] is 639-V (Bladder Carcinoma). A digest of the protocol: (§1)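 Cell lines in DMEM/F12 or RPMI with 10% FBS were plated in 1536-well plates, held 24 hours at 37°C, 5% CO2, then given two-drug dose matrices for 72 hours (DMSO typically 0.2%). Viability was read by CellTiter-Glo 2.0 luminescence and scaled as inhibition from 0 (vehicle wells) to 1 (blank wells). Combination Emax is the second-highest inhibition in the matrix; Bliss excess is observed combination effect minus expected EA + EB − EA·EB, EA and EB being single-agent effects.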

Experiment [2] has as its system 8305C (Thyroid Gland Carcinoma). The procedure, abridged: as §1
The test system of experiment [3] is CAL-54 (Kidney Carcinoma). A digest of the protocol: as §1
Experiment [4] deals with HARA (Squamous Cell Lung Carcinoma). A digest of the protocol: as §1
Experiment [5] relates to HDLM-2 (Hodgkin's Lymphoma). The procedure, abridged:
as §1

In experiment [6] the test system is K5 (Thyroid Gland Carcinoma). A digest of the protocol:
as §1

Experiment [7] has as its system LB771-HNC (Head and Neck Carcinoma). The procedure, abridged:
as §1

Experiment [8] concerns LU-139 (Small Cell Lung Carcinoma). The procedure, abridged: as §1
Experiment [9] concerns MHH-PREB-1 (B-Cell Non-Hodgkin's Lymphoma). A digest of the protocol:
as §1

The subject of another experiment is NB14 (Neuroblastoma). A digest of the protocol: as §1
The test system of experiment [10] is NCI-H69 (Small Cell Lung Carcinoma). The procedure, abridged: as §1
Experiment [11] has as its system NCI-H747 (Colorectal Carcinoma). The procedure, abridged:
as §1

The subject of experiment [12] is OC-314 (Ovarian Carcinoma). A digest of the protocol:
as §1

In experiment [13] the test system is OVCAR-8 (Ovarian Carcinoma). A digest of the protocol: as §1
Experiment [14] concerns RKO (Colorectal Carcinoma). The procedure, abridged:
as §1

For experiment [15], the system named is RPMI-6666 (Non-Cancerous). The procedure, abridged:
as §1

In experiment [16] the test system is SK-OV-3 (Ovarian Carcinoma). The procedure, abridged: as §1
Experiment [17] has as its system SW1271 (Small Cell Lung Carcinoma). A digest of the protocol:
as §1

The subject of experiment [18] is SW626 (Colorectal Carcinoma). A digest of the protocol: as §1

As to `COc1cc2ncnc(Nc3ccc(F)c(Cl)c3)c2cc1OCCCN1CCOCC1` [Gefitinib] + CC(C)n1c(=O)n(C)c2cnc3cc(F)c(-c4ccc(OCCCN5CCCCC5)nc4)cc3c21 [AZD1390] (first compound max 10 µM, 7x7, partner max 0.3 µM), the “combination Emax” value was 0.158 in experiment [1]; 0.298 in [2]; 0.486 in experiment [3]; 0.298 in experiment [4]; 0.192 in [5]; 0.0692 in experiment [6]. In addition, the “combination Emax” value was found to be 0.0839 in [7]; 0.0288 in experiment [8]; 0.123 in [9]; 0.128 with NB14 (Neuroblastoma); 0.286 in experiment [10]; 0.369 in experiment [11]. For the same compound, the “combination Emax” value in [12] amounted to 0.255; in experiment [13], 0.223; in experiment [14], 0.0688; in experiment [15], 0.615; in experiment [16] it was 0.285; in experiment [17], 0.188. The “combination Emax” value in [18] was found to be 0.0985.

On to `C[C@@H](c1ccc2nccn2c1)n1nnc2ncc(-c3cnn(C)c3)nc21` [Savolitinib] + Cc1c2c(nn1C)CSCc1cc(n(C)n1)CSc1cc(c3ccccc3c1)OCCCc1c(C(=O)O)n(C)c3c-2c(Cl)ccc13 [AZD5991] (first compound max 1 µM, 7x7, partner max 1 µM), for which the “combination Emax” value in [1] was 0.21; in [2], 0.196; in experiment [3] it was 0.188; in experiment [4], 0.236; in [5], 0.962; in [6], 0.14. Moreover, the “combination Emax” value in experiment [7] was 0.412; in [8], 0.126; in experiment [9], 0.0906; in the experiment with NB14 (Neuroblastoma), 0.293; in [10], 0.159; in experiment [11] it was 0.337. Further, the “combination Emax” value in experiment [12] is 0.163; in experiment [13] it was 0.0965; in experiment [14], 0.211; in experiment [15] it was 0.523; in experiment [16] it was 0.112; in experiment [17] it was 0.166. In addition, the “combination Emax” value in [18] came out at 0.221.

On to `COc1nnc2ccc(N3CCC(c4ccc(OCCN5CCN(C)C(=O)[C@H]5C)cc4)CC3)nn12` [AZD5153] + Cc1c2c(nn1C)CSCc1cc(n(C)n1)CSc1cc(c3ccccc3c1)OCCCc1c(C(=O)O)n(C)c3c-2c(Cl)ccc13 [AZD5991] (first compound max 1 µM, 7x7, partner max 1 µM), for which the “combination Emax” value in experiment [1] came out at 0.653; in experiment [2] it was 0.545; in [3] it was 0.729; in [4], 0.741; in experiment [5], 0.987; in experiment [6] it was 0.678. Moreover, the “combination Emax” value in [7] came to 0.915; in experiment [8] it was 0.91; in experiment [9], 0.461; in the experiment on NB14 (Neuroblastoma) it was 0.934; in experiment [10], 0.507; in [11] it was 0.734. Besides, the “combination Emax” value is 0.842 in experiment [12]; 0.905 in experiment [13]; 0.78 in experiment [14]; 0.804 in experiment [15]; 0.413 in experiment [16]; 0.512 in experiment [17]. In experiment [18], the “combination Emax” value is 0.704.

Consider `CC(=O)c1c(C)c2cnc(Nc3ccc(N4CCNCC4)cn3)nc2n(C2CCCC2)c1=O` [Palbociclib] + CC1(C)CCC(CN2CCN(c3ccc(C(=O)NS(=O)(=O)c4ccc(NCC5CCOCC5)c([N+](=O)[O-])c4)c(Oc4cnc5[nH]ccc5c4)c3)CC2)=C(c2ccc(Cl)cc2)C1 [Venetoclax] (first compound max 10 µM, 7x7, partner max 1 µM), for which the “combination Emax” value is 0.147 in [1]; 0.431 in [2]; 0.527 in [3]; 0.496 in experiment [4]; 0.731 in experiment [5]; 0.452 in [6]. Further, the “combination Emax” value turned out to be 0.149 in experiment [7]; 0.37 in [8]; 0.412 in experiment [9]; 0.734 in the experiment on NB14 (Neuroblastoma); 0.764 in experiment [10]; 0.343 in experiment [11]. The “combination Emax” value in experiment [12] is 0.334; in [13] it was 0.19; in experiment [14], 0.315; in experiment [15], 0.797; in experiment [16], 0.144; in experiment [17], 0.214. The “combination Emax” value in experiment [18] is 0.153.

Regarding `Cn1cnc2c(F)c(Nc3ccc(Br)cc3Cl)c(C(=O)NOCCO)cc21` [Selumetinib] + C=CCn1c(=O)c2cnc(Nc3ccc(N4CCN(C)CC4)cc3)nc2n1-c1cccc(C(C)(C)O)n1 [AZD1775] (first compound max 10 µM, partner max 1 µM), the “combination Emax” value in experiment [1] was found to be 0.455; in experiment [2], 0.481; in [3], 0.643; in experiment [4], 0.919; in [5], 0.71; in experiment [6], 0.596. Further, the “combination Emax” value in experiment [7] is 0.452; in experiment [8] it was 0.332; in experiment [9] it was 0.777; in the experiment with NB14 (Neuroblastoma), 1; in experiment [10], 0.133; in experiment [11], 0.793. The “combination Emax” value in [12] was found to be 0.452; in [13], 0.872; in experiment [14], 0.904; in experiment [15], 0.829; in [16] it was 0.365; in [17] it was 0.565. The “combination Emax” value in experiment [18] amounted to 0.724.

For `COc1nnc2ccc(N3CCC(c4ccc(OCCN5CCN(C)C(=O)[C@H]5C)cc4)CC3)nn12` [AZD5153] + C=CCn1c(=O)c2cnc(Nc3ccc(N4CCN(C)CC4)cc3)nc2n1-c1cccc(C(C)(C)O)n1 [AZD1775] (first compound max 1 µM, partner max 1 µM), the “combination Emax” value in experiment [1] was 0.714; in experiment [2], 0.674; in experiment [3] it was 0.832; in experiment [4], 0.928; in [5] it was 0.732; in [6], 0.719. Besides, the “combination Emax” value was 0.627 in experiment [7]; 0.89 in experiment [8]; 0.825 in [9]; 1 with NB14 (Neuroblastoma); 0.678 in experiment [10]; 0.782 in experiment [11]. Further, the “combination Emax” value in [12] is 0.912; in experiment [13], 0.863; in experiment [14], 0.841; in [15], 0.828; in experiment [16], 0.506; in experiment [17] it was 0.649. The “combination Emax” value in experiment [18] came to 0.75.

As for `Cn1cnc2c(F)c(Nc3ccc(Br)cc3Cl)c(C(=O)NOCCO)cc21` [Selumetinib] + CCN(CCO)CCCOc1ccc2c(Nc3cc(CC(=O)Nc4cccc(F)c4)[nH]n3)ncnc2c1 [AZD2811] (first compound max 10 µM, 7x7, partner max 1 µM), the “combination Emax” value amounted to 0.342 in [1]; 0.438 in experiment [2]; 0.382 in experiment [3]; 0.409 in experiment [4]; 0.151 in experiment [5]; 0.599 in experiment [6]. The “combination Emax” value was 0.152 in [7]; 0.247 in experiment [8]; 0.134 in experiment [9]; 0.866 with NB14 (Neuroblastoma); 0.548 in experiment [10]; 0.793 in [11]. The “combination Emax” value in [12] was found to be 0.425; in experiment [13], 0.246; in [14] it was 0.838; in experiment [15] it was 0.557; in [16] it was 0.226; in [17], 0.485. Besides, the “combination Emax” value in [18] was 0.624.
